Results from ChEMBL document CHEMBL1153623, “Synthesis and bioactivity of substituted indan-1-ylideneaminoguanidine derivatives” (Eur J Med Chem, 2009).
pIC50: −log10 of the molar value.

What was measured:
[1] = target: Sodium/hydrogen exchanger 1 (Rattus norvegicus, UniProt P26431); assay: Inhibition of NHE1 in Sprague-Dawley rat platelet-rich plasma by optical swelling assay
[2] = test system: Rattus norvegicus; assay: Cardioprotective activity against ischemic Sprague-Dawley rat heart assessed as serum creatine kinase level at 1 mg/kg, iv treated 5 mins before left anterior descending coronary artery occlusion measured after 2 hrs of reperfusion by Evans staining; format: functional
[3] = test system: Rattus norvegicus; assay: Cardioprotective activity against ischemic Sprague-Dawley rat heart assessed as reduction in infarct size at 1 mg/kg, iv treated 5 mins before left anterior descending coronary artery occlusion measured after 2 hrs of reperfusion by Evans staining; format: functional; parameters: scale not given: the % may be the effect or the level left
[4] = test system: Rattus norvegicus; assay: Cardioprotective activity against ischemic Sprague-Dawley rat heart assessed as reduction in infarct size at 0.25 mg/kg, iv treated 5 mins before left anterior descending coronary artery occlusion measured after 2 hrs of reperfusion by Evans staining; format: functional; parameters: scale not given: the % may be the effect or the level left
[5] = test system: Rattus norvegicus; assay: Cardioprotective activity against ischemic Sprague-Dawley rat heart assessed as serum creatine kinase level at 0.5 mg/kg, iv treated 5 mins before left anterior descending coronary artery occlusion measured after 2 hrs of reperfusion by Evans staining; format: functional
[6] = target: Sodium/hydrogen exchanger 1 (Rattus norvegicus) (UniProt P26431); assay: Ratio of cariporide IC50 to compound IC50 for NHE1 in Sprague-Dawley rat platelet-rich plasma by optical swelling assay
[7] = test system: Rattus norvegicus; assay: Cardioprotective activity against ischemic Sprague-Dawley rat heart assessed as reduction in infarct size at 0.5 mg/kg, iv treated 5 mins before left anterior descending coronary artery occlusion measured after 2 hrs of reperfusion by Evans staining; format: functional; parameters: scale not given: the % may be the effect or the level left
[8] = test system: Rattus norvegicus; assay: Cardioprotective activity against ischemic Sprague-Dawley rat heart assessed as serum creatine kinase level at 0.25 mg/kg, iv treated 5 mins before left anterior descending coronary artery occlusion measured after 2 hrs of reperfusion by Evans staining; format: functional

Sequence of Sodium/hydrogen exchanger 1 (P26431 whole entry, the tested form may be a part): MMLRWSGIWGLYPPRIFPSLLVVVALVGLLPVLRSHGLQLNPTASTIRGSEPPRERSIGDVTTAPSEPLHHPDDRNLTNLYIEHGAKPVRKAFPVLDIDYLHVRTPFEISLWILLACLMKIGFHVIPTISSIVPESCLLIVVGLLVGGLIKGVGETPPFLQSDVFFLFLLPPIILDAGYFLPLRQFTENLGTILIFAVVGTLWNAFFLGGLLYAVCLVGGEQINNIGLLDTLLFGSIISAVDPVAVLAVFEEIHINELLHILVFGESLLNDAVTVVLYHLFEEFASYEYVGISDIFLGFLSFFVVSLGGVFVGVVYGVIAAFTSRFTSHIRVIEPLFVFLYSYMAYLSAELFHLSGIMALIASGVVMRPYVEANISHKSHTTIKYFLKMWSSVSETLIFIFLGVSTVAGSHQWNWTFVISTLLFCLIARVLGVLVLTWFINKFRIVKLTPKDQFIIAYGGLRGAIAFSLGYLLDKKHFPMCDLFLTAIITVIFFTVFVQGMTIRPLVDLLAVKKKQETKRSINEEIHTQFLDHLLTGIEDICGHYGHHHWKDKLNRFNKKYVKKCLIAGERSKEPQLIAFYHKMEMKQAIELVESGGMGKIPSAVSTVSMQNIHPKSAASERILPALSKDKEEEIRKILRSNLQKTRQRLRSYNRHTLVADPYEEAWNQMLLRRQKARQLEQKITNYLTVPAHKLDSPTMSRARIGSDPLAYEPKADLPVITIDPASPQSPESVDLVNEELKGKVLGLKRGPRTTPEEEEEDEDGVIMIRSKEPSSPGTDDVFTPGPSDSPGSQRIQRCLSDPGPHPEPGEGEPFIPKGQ
Sequence of Sodium/hydrogen exchanger 1 (Rattus norvegicus) (P26431 whole entry, the tested form may be a part): as above

| pIC50 [1] | SMILES | other results |
| --- | --- | --- |
| 8.63 | NC(N)=N/N=C1\c2ccc(Cl)cc2CC1Sc1nc2ccccc2s1 (configuration not stated) | – |
| 7.67 | NC(N)=N/N=C1\c2ccc(Cl)cc2CC1Sc1nc2ccccc2[nH]1 (configuration not stated) | – |
| 7.95 | COc1cc2c(cc1OC)/C(=N\N=C(N)N)C(Sc1nc3ccccc3[nH]1)C2 (configuration not stated) | – |
| 8.76 | Cl.Cl.NC(N)=N/N=C1\c2ccccc2CC1Sc1nc2ccccc2[nH]1 (configuration not stated) | Activity [2]: 3.02 U/ml; Activity [3]: 42.89% |
| 8.72 | COc1ccc2c(c1)/C(=N\N=C(N)N)C(Sc1nc3ccccc3s1)C2.Cl (configuration not stated) | Activity [2]: 3.38 U/ml; Activity [3]: 43.24% |
| 7.42 | NC(N)=N/N=C1\c2cc(F)ccc2CC1Sc1nc2cc([N+](=O)[O-])ccc2[nH]1 (configuration not stated) | – |
| 7.46 | NC(N)=N/N=C1\c2cc(Cl)ccc2CC1Sc1nc2ccccc2s1 (configuration not stated) | – |
| 7.50 | COc1cc2c(c(OC)c1OC)CC(Sc1nc3cc([N+](=O)[O-])ccc3[nH]1)/C2=N/N=C(N)N (configuration not stated) | – |
| 9.03 | Br.COc1ccc2[nH]c(SC3Cc4cc(Cl)ccc4/C3=N\N=C(N)N)nc2c1.Cl (configuration not stated) | Activity [4]: 42.27%; Activity [2]: 2.82 U/ml; Activity [5]: 3.34 U/ml; Activity [3]: 36.16%; Ratio IC50 [6]: 69; Activity [7]: 40.87%; Activity [8]: 3.72 U/ml |
| 6.49 | NC(N)=N/N=C1\c2cc(Cl)ccc2CC1Sc1nc2ccccc2[nH]1 (configuration not stated) | – |
| 6.54 | NC(N)=N/N=C1\c2cc(F)ccc2CC1Sc1nc2ccccc2s1 (configuration not stated) | – |
| 8.70 | COc1cc2c(c(OC)c1OC)CC(Sc1nc3ccccc3s1)/C2=N/N=C(N)N (configuration not stated) | – |
| 7.97 | COc1cc2c(c(OC)c1OC)CC(Sc1nc3ccccc3[nH]1)/C2=N/N=C(N)N (configuration not stated) | – |
| 8.61 | COc1cc2c(cc1OC)/C(=N\N=C(N)N)C(Sc1nc3ccccc3s1)C2 (configuration not stated) | – |
| 6.18 | NC(N)=N/N=C1\c2cc(Cl)cc(Cl)c2CC1Sc1nc2ccccc2[nH]1 (configuration not stated) | – |
| 7.91 | NC(N)=N/N=C1\c2ccc(Cl)cc2CC1Sc1nc2cc([N+](=O)[O-])ccc2[nH]1 (configuration not stated) | – |
| 7.69 | NC(N)=N/N=C1\c2cccc(Cl)c2CC1Sc1nc2ccccc2s1 (configuration not stated) | – |
| 8.93 | NC(N)=N/N=C1\c2ccc([N+](=O)[O-])cc2CC1Sc1nc2ccccc2[nH]1 (configuration not stated) | – |
| – | CC(C)c1ccc(C(=O)N=C(N)N)cc1S(C)(=O)=O [CARIPORIDE] | Activity [2]: 3.53 U/ml; Activity [3]: 45.74% |
| 7.77 | COc1ccc2[nH]c(SC3Cc4ccccc4/C3=N\N=C(N)N)nc2c1 (configuration not stated) | – |
| 7.59 | COc1ccc2[nH]c(SC3Cc4ccc(F)cc4/C3=N\N=C(N)N)nc2c1 (configuration not stated) | – |
| 8.76 | Cl.NC(N)=N/N=C1\c2ccccc2CC1Sc1nc2cc([N+](=O)[O-])ccc2[nH]1 (configuration not stated) | Activity [2]: 4.12 U/ml; Activity [3]: 49.18% |
| 7.41 | NC(N)=N/N=C1\c2cc(Cl)ccc2CC1Sc1nc2cc([N+](=O)[O-])ccc2[nH]1 (configuration not stated) | – |
